Measurements published in patent publication US20250228861A1, “Cancer Treatments Using MTA-Cooperative PRMT5 Inhibitors” (AMGEN INC., priority 2022, published 2025).
“Also recorded” adds a separate entry of the source. Where two headings read alike, the source gives them in different places.

Legend:
HCT116 MTAP-WT cells [1] = assay: Global SDMA levels (in-cell imaging) in MTAP-WT cells; type: cell-based; details: Homo sapiens, HCT-116, 96 h, 4 days
Procedure: (§1) FIG. 1. […] Viability was measured by CellTiter-Glo and cooperativity was determined as follows: Cooperativity=WT IC50/MTAP-null IC50.
(§2) HCT116 WT and MTAP-null global SDMA levels were assessed by an in-cell imaging assay after 4 days treatment.

HCT116 MTAP-WT cells [2] = assay: 6-day CellTiter-Glo viability in MTAP-WT cells; type: cell-based; details: Homo sapiens, HCT-116, 144 h, 6 days, read-out: proliferation, IC50
Procedure: as §1
(§3) Plated cells were at optimized cell density in 96-well black walled, clear bottom tissue culture plates in 90 μL of growth media. Cells were incubated at room temperature for 30 minutes prior to placing in incubator at 37° C. and 5% CO2 overnight. […] Secondary compound dilutions (1:100) in media were done in the 96-well V-Bottom plate by adding 3 μL of the primary dilution to 297 μL of culture media. Finally, 10 μL from the secondary compound dilutions were added to cells in triplicate (1:10 dilution; final DMSO concentration 0.1%). Once addition was complete, plates were incubated at 37° C. and 5% CO2. […] Percent of Control (POC) values were calculated as follows: POC=100*(Treatment/Vehicle). Mean POC values were then calculated for each treatment condition and used to fit dose response curves applying a four parameter logistic curve in GraphPad Prism 7.

[3] = test system: HCT116 MTAP-null tumor xenografts; details: mouse, in vivo, po
Procedure: FIG. 2: ELISA analysis of HCT116 MTAP WT and HCT116 MTAP-null contralateral tumor cells. […] Percentage of inhibition reported relative to matched vehicle. Data represent mean±SD, n=3 for each group.
Female Athymic Nude mice were implanted with HCT116 MTAP-null or MTAP WT tumors. […] Data represents group means±SEM, n=10. […] STATS: P values were determined by Linear Mixed-Effects Model with a Dunnett's comparison to control.

[4] = test system: BXPC-3 endogenous MTAP-null xenografts; assay: BxPC-3 xenografts; type: in vivo; details: BxPC-3 xenografts in SCID mice; p.o. once a day
Source text: FIG. 10. […] Data represent group means±SEM, n=10. […] Data represent mean±SD, n=5 for each group.

[5] = test system: HAP1- and HCT116 MTAP-null cells; assay: Global SDMA levels (ELISA / in-cell imaging) in MTAP-null cells; type: cell-based; details: HAP1 ELISA 3 days, HCT116 in-cell imaging 4 days
Procedure: as §1
HAP1 WT and MTAP-null global SDMA levels were assessed by an ELISA assay after 3 days treatment.
as §2

[6] = test system: endogenous wild-type or MTAP-null cell lines; assay: 6-day viability in expanded panel of tumor cell lines; type: cell-based; details: endogenous MTAP-null vs wild-type cell lines; 6-day CellTiter-Glo
Procedure: FIG. 9. […] Top concentration of tested was 10 μM (1 uM for DLBCL lines) with a total of nine 1:3 serial dilution steps and DMSO-only control. […] (mean±SD, n=3).

MTAP-null cells = assay: In-vitro mechanism of action studies (DNA damage, cell cycle); type: cell-based; details: data not shown
[7] = test system: DOHH-2 endogenous MTAP-null xenografts; details: mouse, in vivo, po
Procedure: FIG. 10. […] Female SCID mice were implanted with DOHH-2 or BxPC-3 tumors. […] Data represent group means±SEM, n=10. Terminal DOHH-2 or BxPC-3 tumors were collected for SDMA ELISA analysis. Data represent mean±SD, n=5 for each group. STATS: P values were determined by Linear Mixed-Effects Model with a Dunnett's comparison to control; **p<0.01, ****p<0.0001.
FIG. 11. […] (A-D.) Female SCID mice were implanted with DOHH-2 tumors. […] Mice were dosed orally (p.o.) once a day for ten days. Data represent group means±SEM, n=10. A.) Terminal DOHH-2 tumor volumes. […] C.) Disaggregated tumors were stained for γH2AX, MFI (mean florescent intensity). D.) Cardiac bleeds were performed and analyzed on ADVIA.

PSN1 cells [8] = assay: Combination with gemcitabine, CellTiter-Glo viability, Fa and CalcuSyn CI; details: 6 days
Procedure: (§4) Cell viability was measured by the CellTiter-Glo Luminescence assay. Raw luminescent values were converted to fraction affected (Fa) with the following equation:
(§5) Synergy analysis was performed using the CalcuSyn software to determine CI scores based on the drug concentrations used and corresponding Fa values.

PSN1 cells [9] = assay: Combination with carboplatin, CellTiter-Glo viability, Fa and CalcuSyn CI; details: Compound B 0.0384 μM fixed + Carboplatin 3 μM, 6 days
Procedure: as §4, §5

[10] = test system: HAP1- and HCT116 MTAP-null cells; assay: 6-day CellTiter-Glo viability in MTAP-null cells; type: cell-based; details: 144 h, 6 days, read-out: proliferation, IC50
Procedure: as §1, §3

PSN1 cells [11] = details: 6 days
Procedure: as §4, §5

[12] = Compound B 0.022375 μM fixed + Gemcitabine 0.001461 μM
[13] = Compound B 0.022375 μM fixed + Gemcitabine 0.005612 μM
[14] = Compound G 0.0213 μM fixed + 5-FU 0.357628 μM
[15] = Compound G 0.0213 μM fixed + 5-FU 0.572205 μM
[16] = Compound G 0.0213 μM fixed + 5-FU 0.915527 μM
[17] = Compound G 0.0213 μM fixed + 5-FU 1.46484 μM
[18] = Compound G 0.0213 μM fixed + 5-FU 2.34375 μM
[19] = Compound G 0.0213 μM fixed + 5-FU 3.75 μM
[20] = Compound G 0.0213 μM fixed + 5-FU 6 μM

Cc1cc2cc(C(=O)N(Cc3ccc(C(F)(F)F)cn3)[C@@H](C)c3ncccn3)ccc2nc1N [Compound B]
IC50 (HCT116 MTAP-WT cells [1]): 0.05 µM | IC50 (HCT116 MTAP-WT cells [2]): 0.63 µM | SDMA and tumor growth in xenografts [3]: selectively inhibits SDMA and tumor growth | anti-tumor activity [4]: significant anti-tumor activity | IC50 [5]: 0.0002 µM | proliferation / viability in expanded panel of tumor cell lines [6]: inhibited the proliferation of most MTAP-null cells, with minimal effects on MTAP-WT cells; also recorded: preferential activity in endogenous MTAP-null tumor cell lines; also recorded: preferentially inhibits cell viability in endogenous MTAP-null vs. wildtype | DNA damage (phosphorylation of H2AX) (MTAP-null cells): induced DNA damage, as illustrated by increased phosphorylation of H2AX | cell cycle (MTAP-null cells): an arrest in the G2/M phase of the cell cycle | anti-tumor activity [7]: significant anti-tumor activity | DNA damage response in tumors (γH2AX) ([7]; 100 mg/kg): increase in the DNA damage response | cell cycle in tumors (BrdU/DAPI flow cytometry) ([7]; 100 mg/kg): cell cycle arrest | Combination Fa (PSN1 cells [8]; [12]): 0.594 | Computed CI value (PSN1 cells [8]; [12]): 2.081 | Computed CI value (PSN1 cells [8]; Compound B 0.022375 μM fixed + Gemcitabine 0.002045 μM): 1.177 | Combination Fa (PSN1 cells [8]; [13]): 0.985 | Computed CI value (PSN1 cells [8]; [13]): 0.8 | Combination Fa (PSN1 cells [8]; Compound B 0.022375 μM fixed + Gemcitabine 0.007857 μM): 0.986 | Combination Fa (PSN1 cells [8]; Compound B 0.022375 μM fixed + Gemcitabine 0.011 μM): 0.989 | Computed CI value (PSN1 cells [9]): 0.547 | IC50 [10]: 0.027 µM

Nc1nc2cnc(C(=O)N3CCOC[C@@H]3c3ccc(C(F)(F)F)cc3)cc2c2c1COC2 [Compound G]
Combination Fa (PSN1 cells [11]; [14]): 0.3 | Computed CI value (PSN1 cells [11]; [14]): 1.422 | Combination Fa (PSN1 cells [11]; [15]): 0.416 | Computed CI value (PSN1 cells [11]; [15]): 1.404 | Combination Fa (PSN1 cells [11]; [16]): 0.669 | Computed CI value (PSN1 cells [11]; [16]): 1.055 | Combination Fa (PSN1 cells [11]; [17]): 0.74 | Computed CI value (PSN1 cells [11]; [17]): 1.282 | Combination Fa (PSN1 cells [11]; [18]): 0.789 | Computed CI value (PSN1 cells [11]; [18]): 1.668 | Combination Fa (PSN1 cells [11]; [19]): 0.836 | Computed CI value (PSN1 cells [11]; [19]): 2.158 | Combination Fa (PSN1 cells [11]; [20]): 0.869 | Computed CI value (PSN1 cells [11]; [20]): 2.903
